In patent US8962825B2, “Hydroxamates as inhibitors of histone deacetylase” (GlaxoSmithKline Intellectual Property Development Limited, priority 2006, dated 2015):

Legend:
[1] = target: T1, histone deacetylase activity (HeLa nuclear extract); experiment: Histone deacetylase activity (Biomol Fluor de Lys HDAC fluorescent activity assay); type: biochemical; conditions: Fluor de Lys substrate
T1 construct: Histone deacetylase activity from crude nuclear extract derived from HeLa cells was used for screening
Protocol: The ability of compounds to inhibit histone deacetylase activities was measured using the commercially available HDAC fluorescent activity assay from Biomol. In brief, the Fluor de Lys™ substrate, a lysine with an epsilon-amino acetylation, is incubated with the source of histone deacetylase activity (HeLa nuclear extract) in the presence or absence of inhibitor. Deacetylation of the substrate sensitises the substrate to Fluor de Lys™ developer, which generates a fluorophore. Thus, incubation of the substrate with a source of HDAC activity results in an increase in signal that is diminished in the presence of an HDAC inhibitor.
Data are expressed as a percentage of the control, measured in the absence of inhibitor, with background signal being subtracted from all samples, as follows: % activity=[(S^i−B)/(S^o−B)]×100 where S^i is the signal in the presence of substrate, enzyme and inhibitor, S^o is the signal in the presence of substrate, enzyme and the vehicle in which the inhibitor is dissolved, and B is the background signal measured in the absence of enzyme.
(§1) IC50 values were determined by non-linear regression analysis, after fitting the results of eight data points to the equation for sigmoidal dose response with variable slope (% activity against log concentration of Compound), using Graphpad Prism software.
Histone deacetylase activity from crude nuclear extract derived from HeLa cells was used for screening. The preparation, purchased from 4C (Seneffe, Belgium), was prepared from HeLa cells harvested whilst in exponential growth phase. The nuclear extract was prepared according to the methodology described by J. D. Dignam, Nucl. Acid. Res., 1983, 11, 1475-1489, snap frozen in liquid nitrogen and stored at −80° C. The final buffer composition was 20 mM Hepes, 100 mM KCl, 0.2 mM EDTA, 0.5 mM DTT, 0.2 mM PMSF and 20% (v/v) glycerol.

U937 cells = experiment: U937 cell inhibition assay (WST-1 cell viability); type: cell-based
Protocol: (§2) Cancer cell lines (U937 and HUT) growing in log phase were harvested and seeded at 1000-2000 cells/well (100 μl final volume) into 96-well tissue culture plates. Following 24 h of growth cells were treated with Compound. Plates were then re-incubated for a further 72-96 h before a WST-1 cell viability assay was conducted according to the suppliers (Roche Applied Science) instructions.
(§3) Data were expressed as a percentage inhibition of the control, measured in the absence of inhibitor, as follows: % inhibition=100−[(S^i/S^o)×100] where S^i is the signal in the presence of inhibitor and S^o is the signal in the presence of DMSO.
(§4) Dose response curves were generated from 8 concentrations (top final concentration 10 μM, with 3-fold dilutions), using 6 replicates.
(§5) IC50 values were determined by non-linear regression analysis, after fitting the results to the equation for sigmoidal dose response with variable slope (% activity against log concentration of Compound), using Graphpad Prism software.

HUT cells = experiment: HUT cell inhibition assay (WST-1 cell viability); type: cell-based; conditions: 72-96 h
Protocol: as §2, §3, §4, §5

HeLa cells = experiment: HeLa cell inhibition assay (sulphorhodamine B cell viability); type: cell-based; conditions: 72 h, SRB
Protocol: HeLa cells growing in log phase were harvested and seeded at 1000 cells/well (200 μl final volume) into 96-well tissue culture plates. Following 24 h of cell growth cells were treated with Compounds (final concentration of 20 μM). Plates were then re-incubated for a further 72 h before a sulphorhodamine B (SRB) cell viability assay was conducted according to the methodology described by Skehan et al, J. Natl. Canc. Inst., 1990, 82, 1107-1112.
Data were expressed as a percentage inhibition of the control, measured in the absence of inhibitor, as follows:— % inhibition=100−[(S^i/S^o)×100] where S^i is the signal in the presence of inhibitor and S^o is the signal in the presence of DMSO.
as §1

Compound	IC50 [1] [nM]	IC50 (U937 cells; Homo sapiens, U-937, 72-96 h) [nM]	IC50 (HUT cells) [nM]	IC50 (HeLa cells; Homo sapiens) [nM]	IC50 (U937 cells; 72-96 h) [nM]	IC50 (HeLa cells) [nM]
O=C(NO)c1cnc(N2CC3C(CN[C@H](C(=O)OC4CCCC4)C4CCCCC4)C3C2)nc1 (stereo partly drawn) [Example 14, Cyclopentyl (2S)-cyclohexyl[({3-[5-(hydroxycarbamoyl)pyrimidin-2-yl]-3-azabicyclo[3.1.0]hex-6-yl}methyl)amino]acetate]	< 100	331 to 3300	331 to 3300	331 to 3300		
O=C(NO)c1cnc(N2CCC(NCc3ccc(CN[C@H](C(=O)OC4CCCC4)c4ccccc4)cc3)CC2)nc1 [Example 33]	< 100		< 330		< 330	331 to 3300
O=C(NO)c1cnc(N2CCC(CNCc3ccc(CN[C@H](C(=O)OC4CCCC4)C4CCCCC4)cc3)CC2)nc1 [Example 38, Cyclopentyl (2S)-cyclohexyl[(4-{[({1-[5-(hydroxycarbamoyl)pyrimidin-2-yl]piperidin-4-yl}methyl)amino]methyl}benzyl)amino]acetate]	< 100	< 330	331 to 3300	< 330		
O=C(NO)c1cnc(N2CCC(CN[C@H](C(=O)OC3CCCC3)C3CCCCC3)CC2)nc1 [Example 18, Cyclopentyl (2S)-cyclohexyl[({1-[5-(hydroxycarbamoyl)pyrimidin-2-yl]piperidin-4-yl}methyl)amino]acetate]	< 100	< 330	331 to 3300	331 to 3300		
O=C(NO)c1cnc(N2CCC(NCc3ccc(CN[C@H](C(=O)OC4CCCC4)c4ccccc4)cc3)CC2)nc1 [Example 31]	101 to 1000		331 to 3300		< 330	331 to 3300
O=C(NO)c1cnc(N2CC3C(CNCc4ccc(CN[C@H](C(=O)OC5CCCC5)c5ccccc5)cc4)C3C2)nc1 (stereo partly drawn) [Example 35, Cyclopentyl (2S)-[(4-{[({3-[5-(hydroxycarbamoyl)pyrimidin-2-yl]-3-azabicyclo[3.1.0]hex-6-yl}methyl)amino]methyl}benzyl)amino](phenyl)acetate]	< 100	331 to 3300	331 to 3300	331 to 3300		
O=C(NO)c1cnc(N2CCC(NCc3ccc(CN[C@H](C(=O)OC4CCCC4)c4ccccc4)cc3)CC2)nc1 [Example 29]	< 100	< 330	331 to 3300	331 to 3300		
